What follows are compounds tested against T1, MIF (Homo sapiens, UniProt P14174) (assay: MIF tautomerase assay using pHPP as substrate). Settings: FIGS. 1-5; mean of multiple test results; read-out: pIC50 MIF tautomerase activity (converted).
T1 sequence (P14174 2-115 limits assumed): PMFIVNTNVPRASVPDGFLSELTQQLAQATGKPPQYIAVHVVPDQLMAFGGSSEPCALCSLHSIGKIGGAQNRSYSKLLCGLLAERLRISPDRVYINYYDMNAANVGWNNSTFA
Format: biochemical
How it was run: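 Cell-free keto-to-enol tautomerization of pHPP, enol product detected spectrophotometrically as borate complex. Final 3 nM MIF and 1.5 mM ketonic pHPP in DPBS/boric acid buffer with 0.025% BSA and 300 μM CHAPS, pH 6.0, room temperature; initial rates from absorbance slopes give mean pIC50.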

Compound	IC50
O=C(O)Cn1cnc2c(-n3ncc4cc(CO)ccc43)nc(N3CCN(c4ccc(O)cc4)CC3)nc21 [Example 109, 2-(6-(5-(hydroxymethyl)-1H-indazol-1-yl)-2-(4-(4-hydroxyphenyl)piperazin-1-yl)-9H-purin-9-yl)acetic acid]	≤ 100 nM

Same assay, conditions: inhibition of the MIF enzyme in vitro; mean of multiple test results

Compound	Tautomerase Inhibition pIC50
4-(4-(7-(2-hydroxyethyl)-4-(indolin-1-yl)-7H-pyrrolo[2,3-d]pyrimidin-2-yl)piperazin-1-yl)phenol [Example 1]	B (B means 5.01 to 6)

Same assay, conditions: inhibition of the MIF enzyme in vitro; mean of multiple test results; read-out: Tautomerase Inhibition pIC50 (converted)

Compound	IC50
Oc1ccc(C2(O)CCN(c3nc(N4C[C@H](O)[C@@H](O)C4)c4ncn(-c5ccncc5)c4n3)CC2)cc1 [Example 207, (3S,4S)-1-(2-(4-hydroxy-4-(4-hydroxyphenyl)piperidin-1-yl)-9-(pyridin-4-yl)-9H-purin-6-yl)pyrrolidine-3,4-diol]	100 to 977 nM
O=C(O)Cn1cnc2c(-n3ncc4cc(CO)ccc43)nc(N3CCN(c4ccc(O)cc4)CC3)nc21 [Example 109, 2-(6-(5-(hydroxymethyl)-1H-indazol-1-yl)-2-(4-(4-hydroxyphenyl)piperazin-1-yl)-9H-purin-9-yl)acetic acid]	10 to 97.7 nM
CCC(CO)Nc1nc(N2CCN(c3ccc(O)cc3)CC2)nc2c1ncn2-c1cccnc1 (stereo not shown) [Example 114]	100 to 977 nM
Cn1cc(-n2cnc3c(N)nc(N4CCN(c5ccc(O)cc5)CC4)nc32)cn1 [Example 88, 4-(4-(6-amino-9-(1-methyl-1H-pyrazol-4-yl)-9H-purin-2-yl)piperazin-1-yl)phenol]	1000 to 9770 nM
Nc1nc(N2CCN(c3ccc(CO)cn3)CC2)nc2c1ncn2-c1ccncc1 [Example 196, (6-(4-(6-amino-9-(pyridin-4-yl)-9H-purin-2-yl)piperazin-1-yl)pyridin-3-yl)methanol]	> 10000 nM
O=C(O)C1CCN(c2nc(N3CCN(c4ccccc4)CC3)nc3c2ncn3-c2ccncc2)C1 (stereo not shown) [Example 182, 1-(2-(4-phenylpiperazin-1-yl)-9-(pyridin-4-yl)-9H-purin-6-yl)pyrrolidine-3-carboxylic acid]	> 10000 nM
O=C(O)CCCn1cnc2c(-n3ncc4ccccc43)nc(N3CCN(c4ccc(O)cc4)CC3)nc21 [Example 146, 4-(2-(4-(4-hydroxyphenyl)piperazin-1-yl)-6-(1H-indazol-1-yl)-9H-purin-9-yl)butanoic acid]	10 to 97.7 nM
Nc1nc(N2CCC(O)(c3ccc(F)cc3)CC2)nc2c1ncn2-c1ccncc1 [Example 210, 1-(6-amino-9-(pyridin-4-yl)-9H-purin-2-yl)-4-(4-fluorophenyl)piperidin-4-ol]	1000 to 9770 nM
CCC(CO)N(C)c1nc(N2CCN(c3ccc(O)cc3)CC2)nc2c1ncn2-c1cccnc1 (stereo not shown) [Example 169, 4-(4-(6-((1-hydroxybutan-2-yl)(methyl)amino)-9-(pyridin-3-yl)-9H-purin-2-yl)piperazin-1-yl)phenol]	10 to 97.7 nM
O=C(O)C1CCCN1c1nc(N2CCN(c3ccc(O)cc3)CC2)nc2c1ncn2-c1ccncc1 (stereo not shown) [Example 167, (2-(4-(4-hydroxyphenyl)piperazin-1-yl)-9-(pyridin-4-yl)-9H-purin-6-yl)proline]	10 to 97.7 nM
Cc1nc(N2CCN(c3ccc(O)cc3)CC2)nc2c1ncn2-c1cc(N2CCN(c3ccc(O)cc3)CC2)cnn1 [Example 64, 4-(4-(6-(2-(4-(4-hydroxyphenyl)piperazin-1-yl)-6-methyl-9H-purin-9-yl)pyridazin-4-yl)piperazin-1-yl)phenol]	1000 to 9770 nM
O=C(O)Cn1cnc2c(-n3nc(CO)c4ccccc43)nc(N3CCN(c4ccc(O)cc4)CC3)nc21 [Example 11, 2-(6-(3-(hydroxymethyl)-1H-indazol-1-yl)-2-(4-(4-hydroxyphenyl)piperazin-1-yl)-9H-purin-9-yl)acetic acid]	10 to 97.7 nM
CCOC(=O)c1nn(-c2nc(N3CCN(c4ccc(O)cc4)CC3)nc3c2ncn3CC(=O)O)c2ccccc12 [Example 33, 2-(6-(3-(ethoxycarbonyl)-1H-indazol-1-yl)-2-(4-(4-hydroxyphenyl)piperazin-1-yl)-9H-purin-9-yl)acetic acid]	10 to 97.7 nM
Nc1nc(N2CC=C(c3ccc(O)cc3)CC2)nc2c1ncn2-c1ccncc1 [Example 156, 4-(1-(6-amino-9-(pyridin-4-yl)-9H-purin-2-yl)-1,2,3,6-tetrahydropyridin-4-yl)phenol]	> 10000 nM
Cc1cc(C#N)ccc1-n1cnc2c(N)nc(N3CCN(c4ccc(O)cc4)CC3)nc21 [Example 70, 4-(6-amino-2-(4-(4-hydroxyphenyl)piperazin-1-yl)-9H-purin-9-yl)-3-methylbenzonitrile]	> 10000 nM
OCCNc1nc(N2CCN(c3ccc(O)cc3)CC2)nc2c1ncn2-c1cccnc1 [Example 112, 4-(4-(6-((2-hydroxyethyl)amino)-9-(pyridin-3-yl)-9H-purin-2-yl)piperazin-1-yl)phenol]	100 to 977 nM
CS(=O)(=O)NC(=O)Cn1cnc2c(-n3ncc4ccccc43)nc(N3CCN(c4ccc(O)cc4)CC3)nc21 [Example 57, 2-(2-(4-(4-hydroxyphenyl)piperazin-1-yl)-6-(1H-indazol-1-yl)-9H-purin-9-yl)-N-(methylsulfonyl)acetamide]	10 to 97.7 nM
CCC(CO)n1cnc2c(N3CCc4ccccc43)nc(N3CCN(c4ccc(O)cc4)CC3)nc21 (stereo not shown) [Example 30, 4-(4-(9-(1-hydroxybutan-2-yl)-6-(indolin-1-yl)-9H-purin-2-yl)piperazin-1-yl)phenol]	1000 to 9770 nM

Compound	IC50
O=C(O)Cn1cnc2c(-n3nnc4cc(Cl)ccc43)nc(N3CCN(c4ccc(O)cc4)CC3)nc21 [Example 19, 2-(6-(5-chloro-1H-benzo[d][1,2,3]triazol-1-yl)-2-(4-(4-hydroxyphenyl)piperazin-1-yl)-9H-purin-9-yl)acetic acid]	1000 to 9770 nM
O=C(O)Cn1cnc2c(N3CCc4ccccc43)nc(N3CCN(c4ccc(O)cc4)CC3)nc21 [Example 31, 2-(2-(4-(4-hydroxyphenyl)piperazin-1-yl)-6-(indolin-1-yl)-9H-purin-9-yl)acetic acid]	100 to 977 nM
Nc1nc(N2CCN(c3ccc(O)cc3)CC2)nc2c1ncn2-c1ccc(C(=O)O)cc1 [Example 102, 4-(6-amino-2-(4-(4-hydroxyphenyl)piperazin-1-yl) 9H-purin-9-yl)benzoic acid]	1000 to 9770 nM
O=C(O)Cn1cnc2c(-n3nnc4ccc(Cl)cc43)nc(N3CCN(c4ccc(O)cc4)CC3)nc21 [Example 18, 2-(6-(6-chloro-1H-benzo[d][1,2,3]triazol-1-yl)-2-(4-(4-hydroxyphenyl)piperazin-1-yl)-9H-purin-9-yl)acetic acid]	10 to 97.7 nM
O=C(O)Cn1cnc2c(-c3ccnc4[nH]ccc34)nc(N3CCN(c4ccc(O)cc4)CC3)nc21 [Example 35, 2-(2-(4-(4-hydroxyphenyl)piperazin-1-yl)-6-(1H-pyrrolo[2,3-b]pyridin-4-yl)-9H-purin-9-yl)acetic acid]	100 to 977 nM
Cc1cc(N2CCN(c3nc(-n4ncc5ccccc54)c4ncn(CCO)c4n3)CC2)ccc1O [Example 153, 4-(4-(9-(2-hydroxyethyl)-6-(1H-indazol-1-yl)-9H-purin-2-yl)piperazin-1-yl)-2-methylphenol]	1000 to 9770 nM
O=C(O)CNC(=O)Cn1cnc2c(-n3ncc4ccccc43)nc(N3CCN(c4ccc(O)cc4)CC3)nc21 [Example 132, 2-(2-(2-(4-(4-hydroxyphenyl)piperazin-1-yl)-6-(1H-indazol-1-yl)-9H-purin-9-yl)acetamido)acetic acid]	10 to 97.7 nM
Cc1nc(N2CCN(c3ccc(O)cc3)CC2)nc2c1ncn2-c1ccccc1 [Example 43, 4-(4-(6-methyl-9-phenyl-9H-purin-2-yl)piperazin-1-yl)phenol]	100 to 977 nM
Oc1ccc(N2CCN(c3nc(-n4ncc5ccccc54)c4ncn(CCc5nnn[nH]5)c4n3)CC2)cc1 [Example 117, 4-(4-(9-(2-(1H-tetrazol-5-yl)ethyl)-6-(1H-indazol-1-yl)-9H-purin-2-yl)piperazin-1-yl)phenol]	100 to 977 nM
O=C(O)CCN(CCO)c1nc(N2CCN(c3ccc(O)cc3)CC2)nc2c1ncn2-c1ccncc1 [Example 168, 3-((2-hydroxyethyl)(2-(4-(4-hydroxyphenyl)piperazin-1-yl)-9-(pyridin-4-yl)-9H-purin-6-yl)amino)propanoic acid]	10 to 97.7 nM
O=C(O)Cn1cnc2c(-n3ncc4ccccc43)nc(N3CCC(O)(c4ccccc4)C3)nc21 (stereo not shown) [Example 161, 2-(2-(3-hydroxy-3-phenylpyrrolidin-1-yl)-6-(1H-indazol-1-yl)-9H-purin-9-yl)acetic acid]	> 10000 nM
O=C1Cc2cccnc2N1c1nc(N2CCN(c3ccc(O)cc3)CC2)nc2c1ncn2CCO [Example 58, 1-(9-(2-hydroxyethyl)-2-(4-(4-hydroxyphenyl)piperazin-1-yl)-9H-purin-6-yl)-1H-pyrrolo[2,3-b]pyridin-2(3H)-one]	1000 to 9770 nM
COc1ccc2cnn(-c3nc(N4CCN(c5ccc(O)cc5)CC4)nc4c3ncn4CC(=O)O)c2c1 [Example 50, 2-(2-(4-(4-hydroxyphenyl)piperazin-1-yl)-6-(6-methoxy-1H-indazol-1-yl)-9H-purin-9-yl)acetic acid]	1000 to 9770 nM
CC(C)(C(=O)O)n1cnc2c(-n3ncc4ccccc43)nc(N3CCN(c4ccc(O)cc4)CC3)nc21 [Example 128, 2-(2-(4-(4-hydroxyphenyl)piperazin-1-yl)-6-(1H-indazol-1-yl)-9H-purin-9-yl)-2-methylpropanoic acid]	10 to 97.7 nM
N#Cc1nn(-c2nc(N3CCN(c4ccc(O)cc4)CC3)nc3c2ncn3CC(=O)O)c2ccccc12 [Example 134, 2-(2-(4-(4-hy-droxyphenyl)piperazin-1-yl)-6-(3-cyano-1H-indazol-1-yl)-9H-purin-9-yl)acetic acid]	10 to 97.7 nM
COC(=O)CNc1nc(N2CCN(c3ccc(O)cc3)CC2)nc2c1ncn2-c1ccncc1 [Example 162, Methyl (2-(4-(4-hydroxyphenyl)piperazin-1-yl)-9-(pyridin-4-yl)-9H-purin-6-yl)glycinate]	100 to 977 nM
OCCCn1cnc2c(-n3ncc4ccccc43)nc(N3CCN(c4ccc(O)cc4)CC3)nc21 [Example 23, 4-(4-(9-(3-hydroxypropyl)-6-(1H-indazol-1-yl)-9H-purin-2-yl)piperazin-1-yl)phenol]	100 to 977 nM

— patent US20220144838A1, “Compounds as Inhibitors of Macrophage Migration Inhibitory Factor” (NANJING IMMUNOPHAGE BIOTECH CO., LTD., priority 2019, published 2022)
